# Test results taken from patent publication US20250147039A1, “Compounds for complexation of rare earth elements and/or s-, p-, d- block metals, their coordination compounds, peptide conjugates, method of their preparation and use thereof” (USTAV ORGANICKE CHEMIE A BIOCHEMIE AV CR V.V.I., priority 2021, published 2025).
# Columns and labels:
# [1] = Formation of 1,5-cz-[M(Lig)] from Lig and M^III ions (metal dependent click-zip) (Charts 4, 5); assay type: physicochemical; settings: MOPS/NaOH buffer pH 7.0; for conversion to 1,5-cz-[M(Lig)], Sc^III / conversion to 1,5-cz-[M(Lig)], Y^III: TD728, TD827 in 50% i-PrOH; for conversion to 1,5-cz-[M(Lig)], Y^III: TD714 sum of two diastereoisomers
# [2] = Formation of 1,5-cz-[Ln(Lig)] from Lig and Ln^III ions (metal dependent click-zip), MOPS/NaOH buffer pH 7.0, analytical HPLC (Charts 1, 2); settings: MOPS/NaOH buffer pH 7.0
smiles,measurement,setting,value
C#Cc1cccc(CN2CCN(CC(=O)O)CCN(Cc3cc(C(=O)OC)cc(CN=[N+]=[N-])n3)CCN(CC(=O)O)CC2)n1 [TD1092],"conversion to 1,5-cz-[Ln(Lig)] with hydrolysed group in the side chain, Sc^III",[1]; 1 week at 80° C.,17%
same,"conversion to 1,5-cz-[Ln(Lig)] with hydrolysed group in the side chain, Y^III",[1]; 1 week at 80° C.,95%
same,"conversion to 1,5-cz-[M(Lig)], Sc^III",[1]; 1 week at 80° C.,0%
same,"conversion to 1,5-cz-[M(Lig)], Y^III",[1]; 1 week at 80° C.,0%
same,"conversion to 1,5-cz-[Ln(Lig)] with hydrolysed group in the side chain, Sc^III",[1]; 1 hour at 80° C.,0%
same,"conversion to 1,5-cz-[Ln(Lig)] with hydrolysed group in the side chain, Y^III",[1]; 1 hour at 80° C.,12%
same,"conversion to 1,5-cz-[M(Lig)], Sc^III",[1]; 1 hour at 80° C.,1%
same,"conversion to 1,5-cz-[M(Lig)], Y^III",[1]; 1 hour at 80° C.,6%
same,"conversion to 1,5-cz-[Ln(Lig)] with hydrolysed group in the side chain, Ce^III",[2]; after 1 week at 80° C.,37%
same,"conversion to 1,5-cz-[Ln(Lig)], Ce^III",[2]; after 1 week at 80° C.,0%
same,"conversion to 1,5-cz-[Ln(Lig)] with hydrolysed group in the side chain, Ce^III",[2]; after 1 hour at 80° C.,0%
same,"conversion to 1,5-cz-[Ln(Lig)], Ce^III",[2]; after 1 hour at 80° C.,0%
same,"conversion to 1,5-cz-[Ln(Lig)] with hydrolysed group in the side chain, Dy^III",[2]; after 1 week at 80° C.,94%
same,"conversion to 1,5-cz-[Ln(Lig)], Dy^III",[2]; after 1 week at 80° C.,0%
same,"conversion to 1,5-cz-[Ln(Lig)] with hydrolysed group in the side chain, Dy^III",[2]; after 1 hour at 80° C.,8%
same,"conversion to 1,5-cz-[Ln(Lig)], Dy^III",[2]; after 1 hour at 80° C.,5%
same,"conversion to 1,5-cz-[Ln(Lig)] with hydrolysed group in the side chain, Er^III",[2]; after 1 week at 80° C.,94%
same,"conversion to 1,5-cz-[Ln(Lig)], Er^III",[2]; after 1 week at 80° C.,0%
same,"conversion to 1,5-cz-[Ln(Lig)] with hydrolysed group in the side chain, Er^III",[2]; after 1 hour at 80° C.,19%
same,"conversion to 1,5-cz-[Ln(Lig)], Er^III",[2]; after 1 hour at 80° C.,12%
same,"conversion to 1,5-cz-[Ln(Lig)] with hydrolysed group in the side chain, Eu^III",[2]; after 1 week at 80° C.,91%
same,"conversion to 1,5-cz-[Ln(Lig)], Eu^III",[2]; after 1 week at 80° C.,0%
same,"conversion to 1,5-cz-[Ln(Lig)] with hydrolysed group in the side chain, Eu^III",[2]; after 1 hour at 80° C.,2%
same,"conversion to 1,5-cz-[Ln(Lig)], Eu^III",[2]; after 1 hour at 80° C.,2%
same,"conversion to 1,5-cz-[Ln(Lig)] with hydrolysed group in the side chain, Gd^III",[2]; after 1 week at 80° C.,92%
same,"conversion to 1,5-cz-[Ln(Lig)], Gd^III",[2]; after 1 week at 80° C.,0%
same,"conversion to 1,5-cz-[Ln(Lig)] with hydrolysed group in the side chain, Gd^III",[2]; after 1 hour at 80° C.,3%
same,"conversion to 1,5-cz-[Ln(Lig)], Gd^III",[2]; after 1 hour at 80° C.,2%
same,"conversion to 1,5-cz-[Ln(Lig)] with hydrolysed group in the side chain, Ho^III",[2]; after 1 week at 80° C.,94%
same,"conversion to 1,5-cz-[Ln(Lig)], Ho^III",[2]; after 1 week at 80° C.,0%
same,"conversion to 1,5-cz-[Ln(Lig)] with hydrolysed group in the side chain, Ho^III",[2]; after 1 hour at 80° C.,13%
same,"conversion to 1,5-cz-[Ln(Lig)], Ho^III",[2]; after 1 hour at 80° C.,7%
same,"conversion to 1,5-cz-[Ln(Lig)] with hydrolysed group in the side chain, La^III",[2]; after 1 week at 80° C.,40%
same,"conversion to 1,5-cz-[Ln(Lig)], La^III",[2]; after 1 week at 80° C.,0%
same,"conversion to 1,5-cz-[Ln(Lig)] with hydrolysed group in the side chain, La^III",[2]; after 1 hour at 80° C.,0%
same,"conversion to 1,5-cz-[Ln(Lig)], La^III",[2]; after 1 hour at 80° C.,0%
same,"conversion to 1,5-cz-[Ln(Lig)] with hydrolysed group in the side chain, Lu^III",[2]; after 1 week at 80° C.,97%
same,"conversion to 1,5-cz-[Ln(Lig)], Lu^III",[2]; after 1 week at 80° C.,0%
same,"conversion to 1,5-cz-[Ln(Lig)] with hydrolysed group in the side chain, Lu^III",[2]; after 1 hour at 80° C.,30%
same,"conversion to 1,5-cz-[Ln(Lig)], Lu^III",[2]; after 1 hour at 80° C.,26%
same,"conversion to 1,5-cz-[Ln(Lig)] with hydrolysed group in the side chain, Nd^III",[2]; after 1 week at 80° C.,73%
same,"conversion to 1,5-cz-[Ln(Lig)], Nd^III",[2]; after 1 week at 80° C.,0%
same,"conversion to 1,5-cz-[Ln(Lig)] with hydrolysed group in the side chain, Nd^III",[2]; after 1 hour at 80° C.,0%
same,"conversion to 1,5-cz-[Ln(Lig)], Nd^III",[2]; after 1 hour at 80° C.,1%
same,"conversion to 1,5-cz-[Ln(Lig)] with hydrolysed group in the side chain, Pr^III",[2]; after 1 week at 80° C.,62%
same,"conversion to 1,5-cz-[Ln(Lig)], Pr^III",[2]; after 1 week at 80° C.,0%
same,"conversion to 1,5-cz-[Ln(Lig)] with hydrolysed group in the side chain, Pr^III",[2]; after 1 hour at 80° C.,0%
same,"conversion to 1,5-cz-[Ln(Lig)], Pr^III",[2]; after 1 hour at 80° C.,0%
same,"conversion to 1,5-cz-[Ln(Lig)] with hydrolysed group in the side chain, Sm^III",[2]; after 1 week at 80° C.,88%
same,"conversion to 1,5-cz-[Ln(Lig)], Sm^III",[2]; after 1 week at 80° C.,0%
same,"conversion to 1,5-cz-[Ln(Lig)] with hydrolysed group in the side chain, Sm^III",[2]; after 1 hour at 80° C.,2%
same,"conversion to 1,5-cz-[Ln(Lig)], Sm^III",[2]; after 1 hour at 80° C.,1%
same,"conversion to 1,5-cz-[Ln(Lig)] with hydrolysed group in the side chain, Tb^III",[2]; after 1 week at 80° C.,93%
same,"conversion to 1,5-cz-[Ln(Lig)], Tb^III",[2]; after 1 week at 80° C.,0%
same,"conversion to 1,5-cz-[Ln(Lig)] with hydrolysed group in the side chain, Tb^III",[2]; after 1 hour at 80° C.,6%
same,"conversion to 1,5-cz-[Ln(Lig)], Tb^III",[2]; after 1 hour at 80° C.,3%
same,"conversion to 1,5-cz-[Ln(Lig)] with hydrolysed group in the side chain, Tm^III",[2]; after 1 week at 80° C.,95%
same,"conversion to 1,5-cz-[Ln(Lig)], Tm^III",[2]; after 1 week at 80° C.,0%
same,"conversion to 1,5-cz-[Ln(Lig)] with hydrolysed group in the side chain, Tm^III",[2]; after 1 hour at 80° C.,26%
same,"conversion to 1,5-cz-[Ln(Lig)], Tm^III",[2]; after 1 hour at 80° C.,19%
same,"conversion to 1,5-cz-[Ln(Lig)] with hydrolysed group in the side chain, Yb^III",[2]; after 1 week at 80° C.,96%
same,"conversion to 1,5-cz-[Ln(Lig)], Yb^III",[2]; after 1 week at 80° C.,0%
same,"conversion to 1,5-cz-[Ln(Lig)] with hydrolysed group in the side chain, Yb^III",[2]; after 1 hour at 80° C.,30%
same,"conversion to 1,5-cz-[Ln(Lig)], Yb^III",[2]; after 1 hour at 80° C.,24%
[N-]=[N+]=NCc1cccc(CN2CCN(CC(=O)O)CCN(Cc3cccc(C#CC4CC4)n3)CCN(CC(=O)O)CC2)n1 [TD943],"conversion to 1,5-cz-[M(Lig)], Sc^III",[1]; 1 week at 80° C.,5%
same,"conversion to 1,5-cz-[M(Lig)], Y^III",[1]; 1 week at 80° C.,74%
same,"conversion to 1,5-cz-[M(Lig)], Sc^III",[1]; 1 hour at 80° C.,0%
same,"conversion to 1,5-cz-[M(Lig)], Y^III",[1]; 1 hour at 80° C.,1%
same,"conversion to 1,5-cz-[Ln(Lig)], Ce^III",[2]; after 1 week at 80° C.,4%
same,"conversion to 1,5-cz-[Ln(Lig)], Ce^III",[2]; after 1 hour at 80° C.,0%
same,"conversion to 1,5-cz-[Ln(Lig)], Dy^III",[2]; after 1 week at 80° C.,65%
same,"conversion to 1,5-cz-[Ln(Lig)], Dy^III",[2]; after 1 hour at 80° C.,1%
same,"conversion to 1,5-cz-[Ln(Lig)], Er^III",[2]; after 1 week at 80° C.,88%
same,"conversion to 1,5-cz-[Ln(Lig)], Er^III",[2]; after 1 hour at 80° C.,2%
same,"conversion to 1,5-cz-[Ln(Lig)], Eu^III",[2]; after 1 week at 80° C.,36%
same,"conversion to 1,5-cz-[Ln(Lig)], Eu^III",[2]; after 1 hour at 80° C.,0%
same,"conversion to 1,5-cz-[Ln(Lig)], Gd^III",[2]; after 1 week at 80° C.,40%
same,"conversion to 1,5-cz-[Ln(Lig)], Gd^III",[2]; after 1 hour at 80° C.,0%
same,"conversion to 1,5-cz-[Ln(Lig)], Ho^III",[2]; after 1 week at 80° C.,77%
same,"conversion to 1,5-cz-[Ln(Lig)], Ho^III",[2]; after 1 hour at 80° C.,2%
same,"conversion to 1,5-cz-[Ln(Lig)], La^III",[2]; after 1 week at 80° C.,5%
same,"conversion to 1,5-cz-[Ln(Lig)], La^III",[2]; after 1 hour at 80° C.,0%
same,"conversion to 1,5-cz-[Ln(Lig)], Lu^III",[2]; after 1 week at 80° C.,97%
same,"conversion to 1,5-cz-[Ln(Lig)], Lu^III",[2]; after 1 hour at 80° C.,5%
same,"conversion to 1,5-cz-[Ln(Lig)], Nd^III",[2]; after 1 week at 80° C.,16%
same,"conversion to 1,5-cz-[Ln(Lig)], Nd^III",[2]; after 1 hour at 80° C.,0%
same,"conversion to 1,5-cz-[Ln(Lig)], Pr^III",[2]; after 1 week at 80° C.,10%
same,"conversion to 1,5-cz-[Ln(Lig)], Pr^III",[2]; after 1 hour at 80° C.,0%
same,"conversion to 1,5-cz-[Ln(Lig)], Sm^III",[2]; after 1 week at 80° C.,29%
same,"conversion to 1,5-cz-[Ln(Lig)], Sm^III",[2]; after 1 hour at 80° C.,0%
same,"conversion to 1,5-cz-[Ln(Lig)], Tb^III",[2]; after 1 week at 80° C.,56%
same,"conversion to 1,5-cz-[Ln(Lig)], Tb^III",[2]; after 1 hour at 80° C.,1%
same,"conversion to 1,5-cz-[Ln(Lig)], Tm^III",[2]; after 1 week at 80° C.,94%
same,"conversion to 1,5-cz-[Ln(Lig)], Tm^III",[2]; after 1 hour at 80° C.,3%
same,"conversion to 1,5-cz-[Ln(Lig)], Yb^III",[2]; after 1 week at 80° C.,97%
same,"conversion to 1,5-cz-[Ln(Lig)], Yb^III",[2]; after 1 hour at 80° C.,3%
